# Active and inactive are the calls of the source. The rule behind the calls is not given here.
# Legend:
# [1] = Thermal isomerization of the compound in DMSO assessed as E isomer level at 500 uM preincubated for 48 hrs under dark condition followed by irradiated with UV light at 365 nm for 5 mins and subsequent irradiation with UV light at 470 nm for 5 mins measured immediately by UV-Vis spectroscopy
# [2] = Drug isomerization in DMSO assessed as Z isomer level by measuring maximum absorbance at 500 uM irradiated with UV light at 365 nm for 5 mins measured immediately by UV-vis spectra analysis
# [3] = Drug isomerization in DMSO assessed as Z isomer level at 500 uM irradiated with UV light at 365 nm for 5 mins measured immediately by RP-UHPLC analysis
# [4] = target: T1, Transient receptor potential cation channel subfamily V member 6 (Homo sapiens, UniProt Q9H1D0); experiment: Inhibition of human TRPV6 expressed in HEK293 cells assessed as reduction of Cd2+ influx preincubated for 5 mins followed by CdCl2 addition measured under dark state by calcium-5 fluorescence dye-based FLIPR assay; format: cell-based
# T1 sequence (Q9H1D0 whole entry): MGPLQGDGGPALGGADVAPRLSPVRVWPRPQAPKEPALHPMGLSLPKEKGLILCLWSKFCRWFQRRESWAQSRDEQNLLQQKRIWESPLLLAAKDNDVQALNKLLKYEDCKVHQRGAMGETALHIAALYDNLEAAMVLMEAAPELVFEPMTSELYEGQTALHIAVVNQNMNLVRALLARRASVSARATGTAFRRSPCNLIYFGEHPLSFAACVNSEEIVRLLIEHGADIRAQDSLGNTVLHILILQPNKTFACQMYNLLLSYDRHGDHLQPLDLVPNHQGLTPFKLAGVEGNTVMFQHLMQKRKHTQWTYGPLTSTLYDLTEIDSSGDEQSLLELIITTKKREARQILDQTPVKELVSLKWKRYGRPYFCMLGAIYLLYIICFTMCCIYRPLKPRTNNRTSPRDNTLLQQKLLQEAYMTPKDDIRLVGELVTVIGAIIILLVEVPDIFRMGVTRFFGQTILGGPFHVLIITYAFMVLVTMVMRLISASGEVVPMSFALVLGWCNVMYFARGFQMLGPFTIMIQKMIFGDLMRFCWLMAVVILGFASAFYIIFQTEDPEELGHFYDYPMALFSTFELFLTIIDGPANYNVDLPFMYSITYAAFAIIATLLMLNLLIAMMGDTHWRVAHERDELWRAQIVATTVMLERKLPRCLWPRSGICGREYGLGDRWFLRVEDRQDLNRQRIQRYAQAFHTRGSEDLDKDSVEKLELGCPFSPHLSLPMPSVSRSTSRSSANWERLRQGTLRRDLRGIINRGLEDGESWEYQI
# [5] = Stability in DMSO assessed as parent compound remaining at 500 uM irradiated with UV light at 365 nm for 5 mins measured immediately by RP-UHPLC analysis
# [6] = Stability in DMSO assessed as parent compound remaining at 500 uM incubated for 48 hrs in dark by RP-UHPLC analysis; format: physicochemical; details: read-out: Stability
# [7] = target: T2, Transient receptor potential cation channel subfamily V member 6 (Homo sapiens) (UniProt Q9H1D0); experiment: Inhibition of human TRPV6 expressed in HEK293 cells assessed as reduction of Cd2+ influx at 10 uM preincubated for 5 mins followed by CdCl2 addition measured under dark state by calcium-5 fluorescence dye-based FLIPR assay relative to control; format: cell-based
# T2 sequence (whole entry): T1 sequence (Q9H1D0 whole entry)
# [8] = Drug isomerization in DMSO assessed as Z isomer level at 500 uM incubated for 48 hrs in dark by RP-UHPLC analysis
# [9] = Solubility of the compound in DMSO/buffer at >10 uM; format: physicochemical
# [10] = Drug isomerization in DMSO assessed as Z isomer level at 500 uM irradiated with UV light at 365 nm for 5 mins measured immediately by UV-vis spectra analysis
# [11] = target: T2, Transient receptor potential cation channel subfamily V member 6 (Homo sapiens); experiment: Inhibition of human peTFP-C1-TRPV6 expressed in HEK293 cells assessed as decrease in whole cell inward calcium current density at 10 uM at 50 mV holding potential by patch clamp assay; format: cell-based
# [12] = Half life of the compound in DMSO assessed as thermal isomerization by measuring E isomer level at 500 uM incubated for 48 hrs under dark condition by UV-Vis spectroscopy; format: physicochemical
# [13] = target: T2, Transient receptor potential cation channel subfamily V member 6 (Homo sapiens); experiment: Inhibition of human TRPV6 expressed in HEK293 cells assessed as reduction in Cd2+ influx at 10 uM preincubated for 5 mins followed by CdCl2 addition using 365 nm UV-light irradiated compound by calcium-5 fluorescence dye-based FLIPR assay; format: cell-based
# [14] = target: T2, Transient receptor potential cation channel subfamily V member 6 (Homo sapiens); experiment: Inhibition of human YFP-fused TRPV6 expressed in HEK293 cells assessed as decrease in whole cell inward calcium current density at 10 uM at 50 mV holding potential pre-irradiated with 365 nm UV-light followed by […] irradiation by patch clamp assay; format: cell-based
# [15] = target: T1, Transient receptor potential cation channel subfamily V member 6; experiment: Inhibition of human TRPV6 expressed in HEK293 cells assessed as reduction in Cd2+ influx preincubated for 5 mins followed by CdCl2 addition using 365 nm UV-light irradiated compound by calcium-5 fluorescence dye-based FLIPR assay; format: cell-based
# [16] = target: T2, Transient receptor potential cation channel subfamily V member 6 (Homo sapiens); experiment: Inhibition of human YFP-fused TRPV6 expressed in HEK293 cells assessed as decrease in whole cell inward calcium current density at 10 uM at 50 mV holding potential under 365 nm UV-light irradiation by patch clamp assay; format: cell-based
"remaining at 48 h, 500 µM [6] [%]",inhibition [7] [%],solubility [9],half-life at 500 µM [12] [h],inhibition [13],Structure (SMILES),Drug metabolism [1],Z isomer level [3] [%],Stability [5] [%],Z isomer level [8] [%],Drug metabolism [10],also measured
100,70,Insoluble,,,c1ccc(/N=N/c2ccc(CN3CCN([C@H]4CC[C@@H](c5ccccc5)CC4)CC3)cn2)cc1,,50,50,0,,Activity [2]: 400 to 500 nm; IC50 [4]: 600 nM
100,30,Insoluble,,,c1ccc(/N=N/c2ccc(N3CCN([C@H]4CC[C@@H](c5ccccc5)CC4)CC3)cn2)cc1,,12,88,0,Metabolite not detected,
97,13,Insoluble,,,c1ccc(/N=N/c2ccc(CN3CCN([C@H]4CC[C@@H](c5ccccc5)CC4)CC3)cc2)cc1,,75,25,3,,Activity [2]: 400 to 500 nm; IC50 [4]: > 10000 nM; inhibition [11]: Active
,,,3.7,Active,c1ccc(/N=N\c2ccc(CN3CCN([C@H]4CC[C@@H](c5ccccc5)CC4)CC3)cn2)cc1,,,,,,IC50 [15]: 600 nM
93,,Insoluble,,,c1ccc(/N=N/c2ccc(N3CCN([C@H]4CC[C@@H](c5ccccc5)CC4)CC3)cc2)cc1,,7,93,7,Metabolite not detected,

# More lines, now with the values behind:
Structure (SMILES),"remaining at 48 h, 500 µM [6] [%]",inhibition [7] [%],solubility [9],half-life at 500 µM [12] [h],inhibition [13],Drug metabolism [1],Z isomer level [3] [%],Stability [5] [%],Z isomer level [8] [%],Drug metabolism [10],also measured
c1ccc(/N=N\c2ccc(N3CCN([C@H]4CC[C@@H](c5ccccc5)CC4)CC3)cc2)cc1,,,,,,Metabolite detected,,,,,
c1ccc([C@H]2CC[C@@H](N3CCN(c4ccc(/N=N\c5cccnc5)cc4)CC3)CC2)cc1,,,,,,Metabolite detected,,,,,
c1ccc(/N=N\c2ccc(N3CCN([C@H]4CC[C@@H](c5ccccc5)CC4)CC3)cn2)cc1,,,,0.137,Active,,,,,,
c1ccc(/N=N\c2ccc(CN3CCN([C@H]4CC[C@@H](c5ccccc5)CC4)CC3)cc2)cc1,,,,93.6,Active,Metabolite detected,,,,,inhibition [14]: Active; IC50 [15]: 1700 nM; inhibition [16]: Active
c1ccc([C@H]2CC[C@@H](N3CCN(c4ccc(/N=N/c5cccnc5)cc4)CC3)CC2)cc1,100,,Insoluble,,,,0,100,0,Metabolite not detected,
